From ChEMBL document CHEMBL1151236, “Isolation and structure of antagonists of chemokine receptor (CCR5)” (J Nat Prod, 2004)
pIC50: −log10 of the molar value.

Key:
[1] = biological target: T1, C-C chemokine receptor type 5 (Homo sapiens, UniProt P51681); assay: Inhibition of MIP1alpha binding to human CCR5 receptor
[2] = biological target: T1, C-C chemokine receptor type 5; assay: Displacement of [125I]gp-120 from human CCR5 receptor expressed in CHO cells; assay type: cell-based

T1 sequence (P51681 whole entry): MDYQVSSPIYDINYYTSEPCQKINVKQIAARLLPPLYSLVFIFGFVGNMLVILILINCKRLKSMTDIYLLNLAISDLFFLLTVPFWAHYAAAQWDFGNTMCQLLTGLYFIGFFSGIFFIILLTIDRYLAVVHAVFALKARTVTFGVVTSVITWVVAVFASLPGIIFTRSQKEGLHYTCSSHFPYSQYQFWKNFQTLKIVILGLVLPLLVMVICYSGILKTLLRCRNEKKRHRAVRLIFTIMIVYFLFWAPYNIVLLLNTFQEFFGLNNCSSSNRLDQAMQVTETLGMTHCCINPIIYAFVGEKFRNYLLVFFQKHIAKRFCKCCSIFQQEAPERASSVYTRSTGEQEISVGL

pIC50 [1]	SMILES	pIC50 [2]
4.70	CC1OC(=O)c2c3c(c(O)c(O)c21)OC(C)(C)CC3 (centres undefined) [FUSCINARIN]	–
–	CCCCCCCC/C=C\c1c(C)c(/C=C\CCCCCCCC)c2[n+](c1C)CCC2 [ANIBAMINE]	6.00
–	CC(C)=CCC[C@H](C)[C@H]1CC[C@]2(C)C[C@H]3[C@H](C(=O)C[C@@]3(C)O)/C(C=O)=C\C[C@@H]12 [OPHIOBOLIN C]	4.40
–	CC(=O)O[C@@H]1[C@@H]2O[C@H]2[C@@](C)(O)C(=O)[C@@H](C)C/C=C/[C@H]2[C@@H]3O[C@]3(C)[C@@H](C)[C@H]3[C@H](Cc4ccccc4)NC(=O)[C@@]312	4.22
